# Tests used:
# [1] = test system: HCT-15; experiment: SRB growth assay, 6 days exposure, colon cancer; format: cell-based; settings: HCT-15, 6 days
# Method: (§1) Arsenic trioxide (1 mg/ml, 10 mg/ampoule, manufactured by Taylor Pharmaceuticals, Decatur, Ill.) was tested at five concentrations each at 10-fold dilutions, i.e., 10^−5, 10^−6, 10^−7, 10^−8 and 10^−9 μg/ml.
# (§2) The in vitro tests were performed by incubating the test cells in the presence of the indicated concentration of arsenic trioxide under standard culture conditions for a designated period of time, which is followed by a sulforhodamine B (SRB) protein assay to estimate cell viability or growth. The cell lines are organized into subpanels according to the origin of the cell lines, e.g., leukemia, breast cancer, etc. A description of the cell lines and method of testing is described in Monk et al. (1997, Anticancer Drug Des. 12:533-41) and Weinstein et al., (1997, Science 275:343-9), which are incorporated herein in their entirety.
# (§3) The measurement of an effect is expressed in Percentage Growth (PG). The measured effect of the compound on a cell line is calculated according to one or the other of the following two expressions: If (Mean ODtest−Mean ODzero)≧0. then PG=100×(Mean ODtest−Mean ODzero)/(Mean ODctrl−Mean ODzero) If (Mean ODtest−Mean ODzero)<0. then PG=100×(Mean ODtest−Mean ODzero)/(Mean ODzero where: • Mean ODzero=the average of optical density measurements of SRB-derived color just before exposure of cells to the test compounds; • Mean ODtest=the average of optical density measurements of SRB-derived color after exposure of cells to the test compound for a designated period of time; and • Mean ODctrl=the average of optical density measurements of SRB-derived color after with no exposure of cells to the test compound for a designated period of time
# (§4) The first two columns describe the subpanel (e.g., leukemia) and cell line (e.g., CCRF-CEM) involved. The next two columns list the Mean ODzero and Mean ODctrl; the next five columns list the Mean ODtest for each of five different concentrations. Each concentration is expressed as the log10 (molar or μg/ml). The next five columns list the calculated PGs for each concentration. The response parameters GI50, TGI and LC50 are interpolated values representing the concentrations at which the PG is +50, 0, and −50, respectively. Sometimes these response parameters cannot be obtained by interpolation. If, for instance, all of the PGs in a given row exceed +50, then none of the three parameters can be obtained by interpolation. In such a case, the value given for each response parameter is the highest concentration tested and is preceded by a “>” sign. This practice is extended similarly to the other possible situations where a response parameter cannot be obtained by interpolation.
# (§5) In the first set, the cells from 56 different cancer cell lines were exposed to five concentrations of arsenic trioxide continuously for two days prior to performing the SRB assay. In the second set, the cells from 50 different cell lines (a subset of the first 56 cell lines, plus the renal cancer cell line 786-0) were exposed continuously for six days prior to the SRB assay.
# [2] = test system: SW-620; experiment: SRB growth assay, 6 days exposure, colon cancer; format: cell-based; settings: SW-620, 6 days
# Method: as §1, §2, §3, §4, §5
# [3] = test system: COLO 205; experiment: SRB growth assay, 6 days exposure, colon cancer; format: cell-based; settings: COLO 205, 6 days
# Method: as §1, §2, §3, §4, §5
# [4] = test system: HT29; experiment: SRB growth assay, 6 days exposure, colon cancer; format: cell-based; settings: HT29, 6 days
# Method: as §1, §2, §3, §4, §5
# [5] = test system: HCT-116; experiment: SRB growth assay, 6 days exposure, colon cancer; format: cell-based; settings: HCT-116, 6 days
# Method: as §1, §2, §3, §4, §5
# [6] = test system: KM12; experiment: SRB growth assay, 6 days exposure, colon cancer; format: cell-based; settings: KM12, 6 days
# Method: as §1, §2, §3, §4, §5
# [7] = test system: NB4 cells, an APL cell line; settings: in vitro; cited from earlier work
# [8] = test system: BR-549; experiment: SRB growth assay, 6 days exposure, breast cancer; format: cell-based; settings: BT-549, 6 days
# Method: as §1, §2, §3, §4, §5
# [9] = test system: CCRF-CEM; experiment: SRB growth assay, 2 days exposure, leukemia; format: cell-based
# Method: as §1, §2, §3, §4, §5
# [10] = read-out: LC50 (the source's name)
substance,measurement,setting,value
arsenic trioxide,TGI,[1],>1.26E−05
same,Mean Optical Densities,[1]; Log 10 Concentration −4.9,0.404
same,Percent Growth,[1]; Log 10 Concentration −4.9,10%
same,Mean Optical Densities,[1]; Log 10 Concentration −5.9,3.432
same,Percent Growth,[1]; Log 10 Concentration −5.9,89%
same,Mean Optical Densities,[1]; Log 10 Concentration −6.9,4.227
same,Percent Growth,[1]; Log 10 Concentration −6.9,110%
same,Mean Optical Densities,[1]; Log 10 Concentration −7.9,3.921
same,Percent Growth,[1]; Log 10 Concentration −7.9,102%
same,Mean Optical Densities,[1]; Log 10 Concentration −8.9,3.965
same,Percent Growth,[1]; Log 10 Concentration −8.9,103%
same,CC50,[1]; [10],> 12.6 µM
same,TGI,[2],3.43E−06
same,Mean Optical Densities,[2]; Log 10 Concentration −4.9,0.007
same,Percent Growth,[2]; Log 10 Concentration −4.9,−72%
same,Mean Optical Densities,[2]; Log 10 Concentration −5.9,1.475
same,Percent Growth,[2]; Log 10 Concentration −5.9,55%
same,Mean Optical Densities,[2]; Log 10 Concentration −6.9,2.337
same,Percent Growth,[2]; Log 10 Concentration −6.9,88%
same,Mean Optical Densities,[2]; Log 10 Concentration −7.9,2.308
same,Percent Growth,[2]; Log 10 Concentration −7.9,87%
same,Mean Optical Densities,[2]; Log 10 Concentration −8.9,2.613
same,Percent Growth,[2]; Log 10 Concentration −8.9,99%
same,TGI,[3],>1.26E−05
same,Mean Optical Densities,[3]; Log 10 Concentration −4.9,0.024
same,Percent Growth,[3]; Log 10 Concentration −4.9,0%
same,Mean Optical Densities,[3]; Log 10 Concentration −5.9,1.404
same,Percent Growth,[3]; Log 10 Concentration −5.9,59%
same,Mean Optical Densities,[3]; Log 10 Concentration −6.9,2.283
same,Percent Growth,[3]; Log 10 Concentration −6.9,97%
same,Mean Optical Densities,[3]; Log 10 Concentration −7.9,2.026
same,Percent Growth,[3]; Log 10 Concentration −7.9,86%
same,Mean Optical Densities,[3]; Log 10 Concentration −8.9,2.308
same,Percent Growth,[3]; Log 10 Concentration −8.9,98%
same,CC50,[3]; [10],> 12.6 µM
same,TGI,[4],>1.26E−05
same,Mean Optical Densities,[4]; Log 10 Concentration −4.9,0.027
same,Percent Growth,[4]; Log 10 Concentration −4.9,0%
same,Mean Optical Densities,[4]; Log 10 Concentration −5.9,1.476
same,Percent Growth,[4]; Log 10 Concentration −5.9,48%
same,Mean Optical Densities,[4]; Log 10 Concentration −6.9,2.706
same,Percent Growth,[4]; Log 10 Concentration −6.9,88%
same,Mean Optical Densities,[4]; Log 10 Concentration −7.9,2.988
same,Percent Growth,[4]; Log 10 Concentration −7.9,98%
same,Mean Optical Densities,[4]; Log 10 Concentration −8.9,3.189
same,Percent Growth,[4]; Log 10 Concentration −8.9,104%
same,CC50,[4]; [10],> 12.6 µM
same,TGI,[5],>1.26E−05
same,Mean Optical Densities,[5]; Log 10 Concentration −4.9,1.931
same,Percent Growth,[5]; Log 10 Concentration −4.9,56%
same,Mean Optical Densities,[5]; Log 10 Concentration −5.9,3.284
same,Percent Growth,[5]; Log 10 Concentration −5.9,96%
same,Mean Optical Densities,[5]; Log 10 Concentration −6.9,3.381
same,Percent Growth,[5]; Log 10 Concentration −6.9,99%
same,Mean Optical Densities,[5]; Log 10 Concentration −7.9,3.289
same,Percent Growth,[5]; Log 10 Concentration −7.9,96%
same,Mean Optical Densities,[5]; Log 10 Concentration −8.9,3.395
same,Percent Growth,[5]; Log 10 Concentration −8.9,99%
same,CC50,[5]; [10],> 12.6 µM
same,TGI,[6],>1.26E−05
same,Mean Optical Densities,[6]; Log 10 Concentration −4.9,0.017
same,Percent Growth,[6]; Log 10 Concentration −4.9,1%
same,Mean Optical Densities,[6]; Log 10 Concentration −5.9,0.036
same,Percent Growth,[6]; Log 10 Concentration −5.9,4%
same,Mean Optical Densities,[6]; Log 10 Concentration −6.9,0.507
same,Percent Growth,[6]; Log 10 Concentration −6.9,83%
same,Mean Optical Densities,[6]; Log 10 Concentration −7.9,0.533
same,Percent Growth,[6]; Log 10 Concentration −7.9,87%
same,Mean Optical Densities,[6]; Log 10 Concentration −8.9,0.487
same,Percent Growth,[6]; Log 10 Concentration −8.9,80%
same,CC50,[6]; [10],> 12.6 µM
same,apoptosis (programmed cell death),[7],induced apoptosis
same,GI50,[8],2.22 µM
same,TGI,[8],4.24E−06
same,Mean Optical Densities,[8]; Log 10 Concentration −4.9,0.018
same,Percent Growth,[8]; Log 10 Concentration −4.9,−84%
same,Mean Optical Densities,[8]; Log 10 Concentration −5.9,1.697
same,Percent Growth,[8]; Log 10 Concentration −5.9,94%
same,Mean Optical Densities,[8]; Log 10 Concentration −6.9,1.963
same,Percent Growth,[8]; Log 10 Concentration −6.9,110%
same,Mean Optical Densities,[8]; Log 10 Concentration −7.9,1.940
same,Percent Growth,[8]; Log 10 Concentration −7.9,108%
same,Mean Optical Densities,[8]; Log 10 Concentration −8.9,1.876
same,Percent Growth,[8]; Log 10 Concentration −8.9,105%
same,CC50,[8]; [10],8.08 µM
same,TGI,[9],0.01 ng/mL
same,Percent Growth,[9]; log10 conc −4.9,−5%
same,Percent Growth,[9]; log10 conc −5.9,47%
same,Percent Growth,[9]; log10 conc −6.9,98%
same,Percent Growth,[9]; log10 conc −7.9,105%
same,Percent Growth,[9]; log10 conc −8.9,106%

# — patent US6875451B2, “Compositions and methods for the treatment of primary and metastatic neoplastic diseases using arsenic compounds” (PolaRx Biopharmaceuticals Inc., priority 1997, dated 2005)
